These results are taken from patent publication US20240269115A1, “PYRAZOLONE COMPOUNDS FOR USE IN DEGENERATIVE RETINAL DISEASES” (FLONEXT S.R.L., priority 2021, published 2024).

Experiment [1] concerns NalO3-induced damage of the RPE layer in macular degeneration model mice. Briefly: Retinal pigment epithelium damage by RPE65 immunofluorescence in the NalO3 mouse model of macular degeneration. Format: in vivo, C57BL/6J male mice. The settings on record: eye drops 5 μl 3 times a day, days 1-3 (dipyrone 16.65 μg, propyphenazone 11.5 μg, indomethacin 17.85 μg); NalO3 20 mg/kg retro-orbital vein; retina collected day 4; mean±SEM. How it is done: (§1) To create a valid model of macular degeneration, systemic administration (via the retro-orbital vein) of NalO3 was carried out in C57BL/6J male mice aged 5-8 weeks and weighing 22-25 g supplied by the Charles River company (Milan, Italy). A total of 30 mice were used to carry out the experiments described below. The animals were kept in a temperature and humidity-controlled environment (12-hour dark/light cycle, free access to food and water).
(§2) As described above, the mouse model obtained by systemic administration (via the retro-orbital vein) of NalO3 is a model of macular degeneration. In fact, 3 days after administration, NalO3 induced in mice persistent retinal damage with characteristics similar to those observed in age-related macular degeneration in humans.
(§3) In order to evaluate the efficacy of dipyrone and propyphenazone, preferred compounds belonging to the pyrazolone class, in reducing and treating the retinal damage typical of macular degeneration, a model of macular degeneration was developed with an experiment on 5 groups of mice. The mice were administered dipyrone, propyphenazone, indomethacin or their vehicle, locally via eye drops.
(§4) In particular, a group of 6 mice (used as a control) were given vehicle (V1) (NaCl, 0.9%) of NalO3 (1 ml/kg) 60 minutes before the injection into the retro-orbital vein and subsequently given eye drops (5 μl) containing the vehicle (V2) (4% DMSO, 4% Tween 80 in 0.9% NaCl) of the drugs 3 times a day by instillation. […]
Damage to the RPE (retinal pigmented epithelium) was assessed by direct immunofluorescence. […]
The staining intensity of the RPE layer was quantified using a primary antibody (RPE65, #ab13826, mouse monoclonal, 1:100, Abcam, Cambridge, UK) to which a second antibody (fluorophore-labelled, Alexa Fluor 488, #A28175, Thermo Fisher Scientific) binds in the 5 groups of mice treated with V2/V1, V2/NalO3, dipyrone/NalO3, propyphenazone/NalO and indomethacin/NalO3. […]

The subject of experiment [2] is NalO3-induced increase in retinal 4-hydroxynonenal (4-HNE) in macular degeneration model mice. Briefly: Retinal oxidative stress by 4-HNE immunofluorescence in the NalO3 mouse model of macular degeneration. Format: in vivo, C57BL/6J male mice. The settings on record: eye drops 5 μl 3 times a day, days 1-3 (dipyrone 16.65 μg, propyphenazone 11.5 μg, indomethacin 17.85 μg); NalO3 20 mg/kg retro-orbital vein; retina collected day 4; mean±SEM. The method, then: as §1, §2, §3, §4
The level of oxidative stress was also assessed throughout the thickness of the retina by measuring the immunofluorescence intensity for the reactive carbonyl species, 4-hydroxynonenal (4-HNE), a final indicator of oxidative stress.
Levels of 4-HNE were quantified using a primary antibody (#ab48506, monoclonal mouse [HNEJ-2], 1:40, Abcam, Cambridge, UK) to which a second antibody (fluorophore-labelled, Alexa Fluor 594, #A A32742, Thermo Fisher Scientific) binds in the 5 groups of mice treated with V2/V1, V2/NalO3, dipyrone/NalO3, propyphenazone/NalO3 and indomethacin/NalO3. […]

On to `Cc1c(C(C)C)c(=O)n(-c2ccccc2)n1C` [propyphenazone, Propyphenazone], for which the “reduction of the damage induced by NalO3 on the RPE layer (RPE65 staining intensity) compared to V2” value (shortened to “reduction of the damage induced by NalO3”) in experiment [1] amounted to 99.2±23.0%. Further, in experiment [2], the “reduction in retinal 4-HNE levels (immunofluorescence) vs. V2” value (“reduction in retinal 4-HNE levels” below) amounted to 81.3±7.0%.

On to `Cc1c(N(C)CS(=O)(=O)[O-])c(=O)n(-c2ccccc2)n1C.[Na+]` [dipyrone, Dipyrone], for which the “reduction of the damage induced by NalO3” value in experiment [1] was determined as 87.8±7.8%. Besides, in experiment [2], the “reduction in retinal 4-HNE levels” value amounted to 69.7±11.8%.

With `COc1ccc2c(c1)c(CC(=O)O)c(C)n2C(=O)c1ccc(Cl)cc1` [indomethacin, Indomethacin], the “reduction of the damage induced by NalO3” value in experiment [1] stood at 5.7±14.9%. The “reduction in retinal 4-HNE levels” value in experiment [2] worked out at 17.5±10.5%.
